Measured values from PubChem BioAssay (NCI).
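Test compounds were applied to cells in 96-well plates for 48 hours at 5 doses. Definition used: TGI = concentration required for complete inhibition of growth.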 Where a SMILES comes first, the peptide text is derived from it. [ ]: non-standard residue; d: D form. The star is where a group is joined. ξ: configuration not given here. Cbz = O=C(OCc1ccccc1)*; ξK = NCCCCC(N)C(=O)O

What was measured:
Assay in all cases: growth of human tumour cells (NCI), 48 h
786-0 renal = tested on: 786-0 renal
A498 renal = tested on: A498 renal
A549 NSCLC = tested on: A549 NSCLC
ACHN renal = tested on: ACHN renal
CAKI-1 renal = tested on: CAKI-1 renal
CCRF-CEM leukemia = tested on: CCRF-CEM leukemia
COLO 205 colon = tested on: COLO 205 colon
DU-145 prostate = tested on: DU-145 prostate
EKVX NSCLC = tested on: EKVX NSCLC
HCC-2998 colon = tested on: HCC-2998 colon
HCT-116 colon = tested on: HCT-116 colon
HCT-15 colon = tested on: HCT-15 colon
HL-60(TB) leukemia = tested on: HL-60(TB) leukemia
HOP-62 NSCLC = tested on: HOP-62 NSCLC
HOP-92 NSCLC = tested on: HOP-92 NSCLC
HS 578T breast = tested on: HS 578T breast
HT29 colon = tested on: HT29 colon
IGROV1 ovarian = tested on: IGROV1 ovarian
K-562 leukemia = tested on: K-562 leukemia
KM12 colon = tested on: KM12 colon
LOX IMVI melanoma = tested on: LOX IMVI melanoma
M14 melanoma = tested on: M14 melanoma
MALME-3M melanoma = tested on: MALME-3M melanoma
MCF7 breast = tested on: MCF7 breast
MDA-MB-231 breast = tested on: MDA-MB-231 breast
MDA-MB-435 = tested on: MDA-MB-435
MDA-N = tested on: MDA-N
MOLT-4 leukemia = tested on: MOLT-4 leukemia
NCI-H226 lung = tested on: NCI-H226 lung
NCI-H23 lung = tested on: NCI-H23 lung
NCI-H460 lung = tested on: NCI-H460 lung
NCI-H522 lung = tested on: NCI-H522 lung
NCI/ADR-RES ovarian = tested on: NCI/ADR-RES ovarian
OVCAR-3 ovarian = tested on: OVCAR-3 ovarian
OVCAR-4 ovarian = tested on: OVCAR-4 ovarian
OVCAR-5 ovarian = tested on: OVCAR-5 ovarian
OVCAR-8 ovarian = tested on: OVCAR-8 ovarian
PC-3 prostate = tested on: PC-3 prostate
RPMI-8226 leukemia = tested on: RPMI-8226 leukemia
RXF 393 renal = tested on: RXF 393 renal
SF-268 CNS = tested on: SF-268 CNS
SF-295 CNS = tested on: SF-295 CNS
SF-539 CNS = tested on: SF-539 CNS
SK-MEL-2 melanoma = tested on: SK-MEL-2 melanoma
SK-MEL-28 melanoma = tested on: SK-MEL-28 melanoma
SK-MEL-5 melanoma = tested on: SK-MEL-5 melanoma
SK-OV-3 ovarian = tested on: SK-OV-3 ovarian
SN12C renal = tested on: SN12C renal
SNB-19 CNS = tested on: SNB-19 CNS
SNB-75 CNS = tested on: SNB-75 CNS
SW-620 colon = tested on: SW-620 colon
T-47D breast = tested on: T-47D breast
TK-10 renal = tested on: TK-10 renal
U251 CNS = tested on: U251 CNS
UACC-257 melanoma = tested on: UACC-257 melanoma
UO-31 renal = tested on: UO-31 renal
SR leukemia = tested on: SR leukemia
UACC-62 melanoma = tested on: UACC-62 melanoma

CC(=O)Nc1cc(C(=O)Nc2cc(C(=O)Nc3cc(C(=O)Nc4cc(C(=O)Nc5cc(C(=O)NCCC(=O)NCCCN(C)C)n(C)c5)n(C)c4)n(C)c3)n(C)c2)n(C)c1
TGI (786-0 renal): > 100 µM | TGI (A498 renal): > 100 µM | TGI (A549 NSCLC): > 100 µM | TGI (ACHN renal): > 100 µM | TGI (CAKI-1 renal): 44.6 µM | TGI (CCRF-CEM leukemia): 73.9 µM | TGI (COLO 205 colon): > 100 µM | TGI (DU-145 prostate): > 100 µM | TGI (EKVX NSCLC): > 100 µM | TGI (HCC-2998 colon): > 100 µM | TGI (HCT-116 colon): > 100 µM | TGI (HCT-15 colon): > 100 µM | TGI (HL-60(TB) leukemia): > 100 µM | TGI (HOP-62 NSCLC): > 100 µM | TGI (HOP-92 NSCLC): 75 µM | TGI (HS 578T breast): > 100 µM | TGI (HT29 colon): > 100 µM | TGI (IGROV1 ovarian): > 100 µM | TGI (K-562 leukemia): > 100 µM | TGI (KM12 colon): > 100 µM | TGI (LOX IMVI melanoma): > 100 µM | TGI (M14 melanoma): > 100 µM | TGI (MALME-3M melanoma): > 100 µM | TGI (MCF7 breast): > 100 µM | TGI (MDA-MB-231 breast): > 100 µM | TGI (MDA-MB-435): > 100 µM | TGI (MDA-N): > 100 µM | TGI (MOLT-4 leukemia): > 100 µM | TGI (NCI-H226 lung): > 100 µM | TGI (NCI-H23 lung): > 100 µM | TGI (NCI-H460 lung): > 100 µM | TGI (NCI-H522 lung): 55.6 µM | TGI (NCI/ADR-RES ovarian): > 100 µM | TGI (OVCAR-3 ovarian): > 100 µM | TGI (OVCAR-4 ovarian): > 100 µM | TGI (OVCAR-5 ovarian): > 100 µM | TGI (OVCAR-8 ovarian): > 100 µM | TGI (PC-3 prostate): > 100 µM | TGI (RPMI-8226 leukemia): > 100 µM | TGI (RXF 393 renal): > 100 µM | TGI (SF-268 CNS): > 100 µM | TGI (SF-295 CNS): > 100 µM | TGI (SF-539 CNS): > 100 µM | TGI (SK-MEL-2 melanoma): > 100 µM | TGI (SK-MEL-28 melanoma): > 100 µM | TGI (SK-MEL-5 melanoma): > 100 µM | TGI (SK-OV-3 ovarian): > 100 µM | TGI (SN12C renal): > 100 µM | TGI (SNB-19 CNS): > 100 µM | TGI (SNB-75 CNS): > 100 µM | TGI (SW-620 colon): > 100 µM | TGI (T-47D breast): 72.2 µM | TGI (TK-10 renal): > 100 µM | TGI (U251 CNS): > 100 µM | TGI (UACC-257 melanoma): > 100 µM | TGI (UO-31 renal): > 100 µM

NCCCCC(NC(=O)OCc1ccccc1)C(=O)NCC(N)=O (configuration not stated) (Cbz-[ξK]-Gly-NH2)
TGI (786-0 renal): > 100 µM | TGI (A498 renal): > 100 µM | TGI (A549 NSCLC): > 100 µM | TGI (ACHN renal): > 100 µM | TGI (CAKI-1 renal): > 100 µM | TGI (CCRF-CEM leukemia): > 100 µM | TGI (COLO 205 colon): > 100 µM | TGI (DU-145 prostate): > 100 µM | TGI (EKVX NSCLC): > 100 µM | TGI (HCC-2998 colon): > 100 µM | TGI (HCT-116 colon): > 100 µM | TGI (HCT-15 colon): > 100 µM | TGI (HOP-62 NSCLC): > 100 µM | TGI (HOP-92 NSCLC): > 100 µM | TGI (HS 578T breast): > 100 µM | TGI (HT29 colon): > 100 µM | TGI (IGROV1 ovarian): > 100 µM | TGI (K-562 leukemia): > 100 µM | TGI (KM12 colon): > 100 µM | TGI (LOX IMVI melanoma): > 100 µM | TGI (M14 melanoma): > 100 µM | TGI (MALME-3M melanoma): > 100 µM | TGI (MCF7 breast): > 100 µM | TGI (MDA-MB-231 breast): > 100 µM | TGI (MDA-MB-435): > 100 µM | TGI (MDA-N): > 100 µM | TGI (MOLT-4 leukemia): > 100 µM | TGI (NCI-H226 lung): > 100 µM | TGI (NCI-H23 lung): > 100 µM | TGI (NCI-H460 lung): > 100 µM | TGI (NCI-H522 lung): > 100 µM | TGI (NCI/ADR-RES ovarian): > 100 µM | TGI (OVCAR-3 ovarian): > 100 µM | TGI (OVCAR-4 ovarian): > 100 µM | TGI (OVCAR-5 ovarian): > 100 µM | TGI (OVCAR-8 ovarian): > 100 µM | TGI (PC-3 prostate): > 100 µM | TGI (RPMI-8226 leukemia): > 100 µM | TGI (RXF 393 renal): > 100 µM | TGI (SF-268 CNS): > 100 µM | TGI (SF-295 CNS): > 100 µM | TGI (SF-539 CNS): > 100 µM | TGI (SK-MEL-2 melanoma): > 100 µM | TGI (SK-MEL-28 melanoma): > 100 µM | TGI (SK-MEL-5 melanoma): > 100 µM | TGI (SK-OV-3 ovarian): > 100 µM | TGI (SN12C renal): > 100 µM | TGI (SNB-19 CNS): > 100 µM | TGI (SNB-75 CNS): > 100 µM | TGI (SR leukemia): > 100 µM | TGI (SW-620 colon): > 100 µM | TGI (T-47D breast): > 100 µM | TGI (U251 CNS): > 100 µM | TGI (UACC-257 melanoma): > 100 µM | TGI (UACC-62 melanoma): > 100 µM | TGI (UO-31 renal): > 100 µM

CC12OC(=O)[C@@]3(O)CCC4C(C[C@H]5O[C@]56CC=CC(=O)[C@]46C)C45OC[C@H]6C(=O)O[C@@H]1C[C@@]6(C)[C@H](C4=O)C23O5 (some centres not stated)
TGI (786-0 renal): 2.25 µM | TGI (A549 NSCLC): 13.7 µM | TGI (ACHN renal): 8.45 µM | TGI (CAKI-1 renal): 7.53 µM | TGI (CCRF-CEM leukemia): 1.45 µM | TGI (COLO 205 colon): 1.93 µM | TGI (DU-145 prostate): 7.77 µM | TGI (EKVX NSCLC): 16.6 µM | TGI (HCC-2998 colon): 10.5 µM | TGI (HCT-116 colon): 4.97 µM | TGI (HCT-15 colon): 4.43 µM | TGI (HOP-62 NSCLC): 10.4 µM | TGI (HOP-92 NSCLC): 5.67 µM | TGI (HS 578T breast): 68.9 µM | TGI (HT29 colon): 8.99 µM | TGI (IGROV1 ovarian): 2.58 µM | TGI (K-562 leukemia): > 100 µM | TGI (KM12 colon): 3.97 µM | TGI (LOX IMVI melanoma): 6.92 µM | TGI (M14 melanoma): 4.32 µM | TGI (MALME-3M melanoma): 5.72 µM | TGI (MCF7 breast): 3.3 µM | TGI (MDA-MB-231 breast): 2.58 µM | TGI (MDA-MB-435): 5.2 µM | TGI (MDA-N): 26.1 µM | TGI (MOLT-4 leukemia): 21.4 µM | TGI (NCI-H226 lung): 6.98 µM | TGI (NCI-H23 lung): 2.18 µM | TGI (NCI-H460 lung): 8.69 µM | TGI (NCI-H522 lung): 1.77 µM | TGI (NCI/ADR-RES ovarian): > 100 µM | TGI (OVCAR-3 ovarian): 2.77 µM | TGI (OVCAR-4 ovarian): 8.27 µM | TGI (OVCAR-5 ovarian): 10.7 µM | TGI (OVCAR-8 ovarian): 12.6 µM | TGI (PC-3 prostate): 12.9 µM | TGI (RPMI-8226 leukemia): 2.47 µM | TGI (RXF 393 renal): 2.43 µM | TGI (SF-268 CNS): 1.91 µM | TGI (SF-295 CNS): 16.2 µM | TGI (SF-539 CNS): 0.923 µM | TGI (SK-MEL-2 melanoma): 9.38 µM | TGI (SK-MEL-28 melanoma): 2.06 µM | TGI (SK-MEL-5 melanoma): 2.86 µM | TGI (SK-OV-3 ovarian): 18.6 µM | TGI (SN12C renal): 5.39 µM | TGI (SNB-19 CNS): 11.8 µM | TGI (SNB-75 CNS): 20.7 µM | TGI (SR leukemia): 2.46 µM | TGI (SW-620 colon): 4.87 µM | TGI (T-47D breast): 5.27 µM | TGI (TK-10 renal): 3.97 µM | TGI (U251 CNS): 5.77 µM | TGI (UACC-257 melanoma): 4.98 µM | TGI (UACC-62 melanoma): 3.46 µM
